Tests used:
[1] = biological target: T1, B1R receptor of the rat (CHO K1 cells stably transfected with the B1R gene of the rat) (Rattus norvegicus, UniProt P97583); assay: Functional study on the bradykinin receptor 1 (B1R), Ca2+ fluorescence (Fluo-4) FLIPR/Novostar assay, rB1R cells; assay type: cell-based; details: for inhibition at 10 µM: CHO-K1, 10 μM, read-out: % Inhibition (r-B1R) at 10 μM
T1 construct: expressed in transfected cells; host or cells: CHO K1 cells (Chinese hamster ovary), stably transfected
T1 sequence (P97583 1-337): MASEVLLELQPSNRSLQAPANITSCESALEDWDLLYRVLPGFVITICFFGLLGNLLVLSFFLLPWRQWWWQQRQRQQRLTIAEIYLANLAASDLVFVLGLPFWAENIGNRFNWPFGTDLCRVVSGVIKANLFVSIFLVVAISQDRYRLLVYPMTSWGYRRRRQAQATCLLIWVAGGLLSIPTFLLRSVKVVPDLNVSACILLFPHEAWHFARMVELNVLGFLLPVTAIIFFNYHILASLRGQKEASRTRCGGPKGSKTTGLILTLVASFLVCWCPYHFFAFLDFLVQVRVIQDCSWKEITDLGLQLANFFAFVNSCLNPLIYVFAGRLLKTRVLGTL
Summary of the method: (§1)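 Test compounds (10 μM) were added first and the Ca2+ rise was scored as % activation against Lys-Des-Arg9-bradykinin (≥50 nM, human) or Des-Arg9-bradykinin (≥1 μM, rat). After 6-20 min, the matching agonist was given at its EC80, and % inhibition relative to maximal achievable inhibition was calculated.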

[2] = biological target: T2, human B1R receptor (CHO K1 cells stably transfected with the human B1R gene) (Homo sapiens, UniProt P46663); assay: Functional study on the bradykinin receptor 1 (B1R), Ca2+ fluorescence (Fluo-4) FLIPR/Novostar assay, hB1R cells; assay type: cell-based; details: CHO-K1, read-out: % Inhibition (h-B1R) at 10 μM
T2 construct: expressed in transfected cells; host or cells: CHO K1 cells (Chinese hamster ovary), stably transfected
T2 sequence (P46663 1-353): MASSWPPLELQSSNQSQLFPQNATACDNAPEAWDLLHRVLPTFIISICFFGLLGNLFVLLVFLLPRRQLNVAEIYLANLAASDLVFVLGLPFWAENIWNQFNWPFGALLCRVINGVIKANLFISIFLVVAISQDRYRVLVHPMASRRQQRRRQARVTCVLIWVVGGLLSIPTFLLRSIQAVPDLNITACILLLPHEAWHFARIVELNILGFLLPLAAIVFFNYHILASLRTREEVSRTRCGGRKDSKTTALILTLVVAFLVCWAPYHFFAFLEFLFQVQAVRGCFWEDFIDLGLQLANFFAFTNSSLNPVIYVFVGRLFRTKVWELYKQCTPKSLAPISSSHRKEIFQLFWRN
Summary of the method: as §1

SMILES	inhibition at 10 µM [1]	inhibition at 10 µM [2]	% Inhibition (r-B1R) at 10 μM ([1]; 10 μM)
CN(C(=O)c1ccc2c(c1)C(NC(=O)c1ccccc1Cl)CCO2)C1CCN(c2ccncc2)CC1 (stereo not shown) [CC_H-33, 4-[(2-Chloro-benzoyl)amino]-N-methyl-N-(1-pyridin-4-yl-piperidin-4-yl)-3,4-dihydro-2H-chromene-6-carboxylic acid amide]	104%	98%	–
CN(C(=O)c1ccc2c(c1)C(NC(=O)C1CCCCC1)CCO2)C1CCN(c2ccncc2)CC1 (stereo not shown) [CC_H-38, 4-(Cyclohexanecarbonylamino)-N-methyl-N-(1-pyridin-4-yl-piperidin-4-yl)-3,4-dihydro-2H-chromene-6-carboxylic acid amide]	104%	99%	–
CC(C)CC(=O)NC1CCOc2ccc(C(=O)N(C)C3CCN(c4ccncc4)CC3)cc21 (stereo not shown) [CC_H-39, N-Methyl-4-(3-methyl-butanoylamino)-N-(1-pyridin-4-yl-piperidin-4-yl)-3,4-dihydro-2H-chromene-6-carboxylic acid amide]	–	99%	104%
CN(C(=O)c1ccc2c(c1)C(NC(=O)c1sccc1Cl)CCO2)C1CCN(c2ccncc2)CC1 (stereo not shown) [CC_H-40, 4-[(3-Chloro-thiophene-2-carbonyl)amino]-N-methyl-N-(1-pyridin-4-yl-piperidin-4-yl)-3,4-dihydro-2H-chromene-6-carboxylic acid amide]	100%	95%	–
CC(C)CC(=O)NC1CCc2ccc(C(=O)N(C)C3CCN(c4ccncc4)CC3)cc21 (stereo not shown) [CC_H-41, N-Methyl-3-(3-methyl-butanoylamino)-N-(1-pyridin-4-yl-piperidin-4-yl)-2,3-dihydro-1H-indene-5-carboxylic acid amide]	104%	100%	–
CN(C(=O)c1ccc2c(c1)C(NC(=O)c1cnccc1C(F)(F)F)CCO2)C1CCN(c2ccncc2)CC1 (stereo not shown) [CC_H-42, N-[6-[Methyl-(1-pyridin-4-yl-piperidin-4-yl)-carbamoyl]-3,4-dihydro-2H-chromen-4-yl]-4-(trifluoromethyl)-pyridine-3-carboxylic acid amide]	104%	99%	–
CC(C)CC(=O)NC1CC(C)(C)c2ccc(C(=O)N(C)C3CCN(c4ccncc4)CC3)cc21 (stereo not shown) [CC_H-43, N,1,1-Trimethyl-3-(3-methyl-butanoylamino)-N-(1-pyridin-4-yl-piperidin-4-yl)-2,3-dihydro-indene-5-carboxylic acid amide]	105%	100%	–
CN(C(=O)c1ccc2c(c1)C(N(C)C(=O)c1cncnc1)CC2)C1CCN(c2ccncc2)CC1 (stereo not shown) [CC_H-45, N-Methyl-N-[6-[methyl-(1-pyridin-4-yl-piperidin-4-yl)-carbamoyl]-2,3-dihydro-1H-inden-1-yl]-pyrimidine-5-carboxylic acid amide]	88%	96%	–
CN(C(=O)c1ccc2c(c1)C(NC(=O)c1cncnc1)CC2)C1CCN(c2ccncc2)CC1 (stereo not shown) [CC_H-48, N-[6-[Methyl-(1-pyridin-4-yl-piperidin-4-yl)-carbamoyl]-2,3-dihydro-1H-inden-1-yl]-pyrimidine-5-carboxylic acid amide]	78%	96%	–
CN(C(=O)c1ccc2c(c1)C(NC(=O)CCC1CCCC1)CCO2)C1CCN(c2ccncc2)CC1 (stereo not shown) [CC_H-49, 4-(3-Cyclopentyl-propanoylamino)-N-methyl-N-(1-pyridin-4-yl-piperidin-4-yl)-3,4-dihydro-2H-chromene-6-carboxylic acid amide]	102%	99%	–
CN(C(=O)N(C)C1CCc2ccc(C(=O)N(C)C3CCN(c4ccncc4)CC3)cc21)c1ccccc1Cl (stereo not shown) [CC_H-51, 3-[[(2-Chlorophenyl)-methyl-carbamoyl]-methyl-amino]-N-methyl-N-(1-pyridin-4-yl-piperidin-4-yl)-2,3-dihydro-1H-indene-5-carboxylic acid amide]	90%	99%	–
CN(C(=O)c1ccc2c(c1)C(NC(=O)c1cccc(Cl)c1Cl)CC2)C1CCN(c2ccc3cnccc3c2)CC1 (stereo not shown) [CC_H-52, 3-[(2,3-Dichloro-benzoyl)amino]-N-(1-isoquinolin-6-yl-piperidin-4-yl)-N-methyl-2,3-dihydro-1H-indene-5-carboxylic acid amide]	98%	99%	–

Results, then the compound that gave them:

inhibition at 10 µM [1]	inhibition at 10 µM [2]	% Inhibition (r-B1R) at 10 μM ([1]; 10 μM)	SMILES
105%	97%	–	CN(C(=O)c1ccc2c(c1)C(N(C)C(=O)c1cnccc1C(F)(F)F)CC2)C1CCN(c2ccncc2)CC1 (stereo not shown) [CC_H-32, N-Methyl-N-[6-[methyl-(1-pyridin-4-yl-piperidin-4-yl)-carbamoyl]-2,3-dihydro-1H-inden-1-yl]-4-(trifluoromethyl)-pyridine-3-carboxylic acid amide]
104%	99%	–	O=C(NCCC1CCN(c2ccncc2)CC1)c1ccc2c(c1)C(NC(=O)c1ccccc1Cl)CC2 (stereo not shown) [CC_H-34, 3-[(2-Chloro-benzoyl)amino]-N-[2-(1-pyridin-4-yl-piperidin-4-yl)-ethyl]-2,3-dihydro-1H-indene-5-carboxylic acid amide]
104%	97%	–	CN(C(=O)c1ccc2c(c1)C(NC(=O)c1cccc(Cl)c1Cl)CCO2)C1CCN(c2ccncc2)CC1 (stereo not shown) [CC_H-35, 4-[(2,3-Dichloro-benzoyl)amino]-N-methyl-N-[1-pyridin-4-yl-piperidin-4-yl]-3,4-dihydro-2H-chromene-6-carboxylic acid amide]
104%	99%	–	O=C(NCCC1CCN(c2ccncc2)CC1)c1ccc2c(c1)C(NC(=O)c1cc(F)ccc1Cl)CC2 (stereo not shown) [CC_H-36, 3-[(2-Chloro-5-fluoro-benzoyl)amino]-N-[2-(1-pyridin-4-yl-piperidin-4-yl)-ethyl]-2,3-dihydro-1H-indene-5-carboxylic acid amide]
104%	93%	–	O=C(NCCC1CCN(c2ccncc2)CC1)c1ccc2c(c1)C(NC(=O)c1cnccc1C(F)(F)F)CC2 (stereo not shown) [CC_H-37, N-[6-[2-(1-Pyridin-4-yl-piperidin-4-yl)-ethyl-carbamoyl]-2,3-dihydro-1H-inden-1-yl]-4-(trifluoromethyl)-pyridine-3-carboxylic acid amide]
104%	100%	–	CN(C(=O)NC1CCc2ccc(C(=O)N(C)C3CCN(c4ccncc4)CC3)cc21)c1ccccc1Cl (stereo not shown) [CC_H-44, 3-[[(2-Chlorophenyl)-methyl-carbamoyl]amino]-N-methyl-N-(1-pyridin-4-yl-piperidin-4-yl)-2,3-dihydro-1H-indene-5-carboxylic acid amide]
104%	99%	–	CN(C(=O)c1ccc2c(c1)C(N(C)S(=O)(=O)Cc1ccccc1C(F)(F)F)CC2)C1CCN(c2ccncc2)CC1 (stereo not shown) [CC_H-46, N-Methyl-3-[methyl-[[2-(trifluoromethyl)-phenyl]-methylsulfonyl]-amino]-N-(1-pyridin-4-yl-piperidin-4-yl)-2,3-dihydro-1H-indene-5-carboxylic acid amide]
104%	99%	–	CN(C(=O)c1ccc2c(c1)C(NS(=O)(=O)c1c(Cl)cccc1C(F)(F)F)CCO2)C1CCN(c2ccncc2)CC1 (stereo not shown) [CC_H-47, 4-[[[2-Chloro-6-(trifluoromethyl)-phenyl]sulfonyl]amino]-N-methyl-N-(1-pyridin-4-yl-piperidin-4-yl)-3,4-dihydro-2H-chromene-6-carboxylic acid amide]
101%	100%	–	O=C(NCCC1CCN(c2ccncc2)CC1)c1ccc2c(c1)C(NS(=O)(=O)c1c(Cl)cccc1C(F)(F)F)CC2 (stereo not shown) [CC_H-50, 3-[[[2-Chloro-6-(trifluoromethyl)-phenyl]sulfonyl]amino]-N-[2-(1-pyridin-4-yl-piperidin-4-yl)-ethyl]-2,3-dihydro-1H-indene-5-carboxylic acid amide]
104%	100%	–	CN(C(=O)c1ccc2c(c1)C(NS(=O)(=O)c1c(Cl)cccc1C(F)(F)F)CC2)C1CCN(c2ccncc2)CC1 (stereo not shown) [CC_H-54, 3-[[[2-Chloro-6-(trifluoromethyl)-phenyl]sulfonyl]amino]-N-methyl-N-(1-pyridin-4-yl-piperidin-4-yl)-2,3-dihydro-1H-indene-5-carboxylic acid amide]
96%	99%	–	CN(C(=O)c1ccc2c(c1)C(NS(=O)(=O)Cc1ccccc1C(F)(F)F)CC2)C1CCN(c2ccc3cnccc3c2)CC1 (stereo not shown) [CC_H-55, N-(1-Isoquinolin-6-yl-piperidin-4-yl)-N-methyl-3-[[[2-(trifluoromethyl)-phenyl]-methylsulfonyl]amino]-2,3-dihydro-1H-indene-5-carboxylic acid amide]

— patent publication US8680159B2, “Bradykinin 1 receptor modulating compounds” (Gruenenthal GmbH, priority 2010, dated 2014)
